Consider two compounds from patent US6602908B2, “Suppression of carcinoma using high purity conjugated fatty acid” (priority 1999, dated 2003).

The test system of one assay is mammary adenocarcinomas. Briefly: Development of mammary tumors in laboratory animals fed dietary CLA. In kind it is in vivo. To be noted: for reduction in the total number of mammary adenocarcinomas: laboratory animals. The text has this: The synthetically prepared conjugated linoleic acid (CLA) is an effective agent in inhibiting the development of mammary tumors. Laboratory animals fed a diet comprising 0.5%, 1%, or 1.5% by weight conjugated linoleic acid (CLA) have been seen to have a reduction in the total number of mammary adenocarcinomas, in the range of about 30%, 55%, and 60%, respectively. […] Final tumor incidence and cumulative tumor weights are diminished with the administration of a therapeutically effective amount of the purified conjugated linoleic acid (CLA).

For the next assay, the system named is breast cancer. To be noted: mice; cited from earlier work.
Another assay concerns Carcinogenesis. Particulars: in vivo; cited from earlier work.
[1] abbreviates: therapeutically effective amount of purified CLA.

As for conjugated linoleic acid [CLA], in the assay with mammary adenocarcinomas (dietary CLA between 0.1 and 0.5% by weight), the “inhibition of mammary cancer and protection against subsequent tumor occurrence” value is “dose-dependent inhibition”. For the same compound, the “reduction in the total number of mammary adenocarcinomas” value in the assay on mammary adenocarcinomas (diet comprising 0.5% by weight CLA) is recorded as “about 30%”; in the assay with mammary adenocarcinomas (diet comprising 1% by weight CLA) it was approximately 55%; in the assay with mammary adenocarcinomas (diet comprising 1.5% by weight CLA), approximately 60%. The cumulative tumor weights result with mammary adenocarcinomas (setting [1]) is on record as “diminished”. Also, in the assay on mammary adenocarcinomas (setting [1]), the final tumor incidence result is recorded as “diminished”. Also, in the assay on breast cancer, the “effect on breast cancer” value is listed as “preventive effects”.
As for `CCCCC/C=C\C/C=C\CCCCCCCC(=O)O` [Linoleic acid, 9-cis, 12-cis octadecadienoic acid], the “effect on Carcinogenesis” value in the assay on Carcinogenesis is given as “enhance Carcinogenesis”.
